Here are results for 1 molecule from patent publication US9682060B2, “Small molecules that induce intrinsic pathway apoptosis” (The Board of Trustees of the University of Illinois, priority 2015, dated 2017).

Experiment [1] concerns SKW 6.4 cells. Briefly: Immunoblotting of caspase activation. In kind it is cell-based, Human. As to conditions: 10 μM. Here is the method:
U-937 cells (3×10^6 cells in 2 mL RPMI) or SKW 6.4 cells (5×10^6 cells in 2 mL RPMI) were treated with compound (1% final DMSO v/v) for the appropriate period of time. After centrifugation and washing with PBS, cells were lysed with RIPA lysis buffer containing protease cocktail inhibitor III (Calbiochem) and cell debris removed by centrifugation (16000×g 5 min). The lysate concentrations were normalized after determination of protein concentration by the Bradford assay and whole cell lysate (40-60 μg) was resolved by 4-20% gradient SDS-PAGE gel electrophoresis at 120 V for 70 min after which proteins were transferred onto PVDF membranes (60 V for 2 hours) and blocked in 5% BSA or fat-free milk in TBST (as per primary antibody manufacturer's instructions) overnight at 4° C. The membranes were blotted for molecules of interest with primary antibody (1:1000 in 5% BSA or milk in TBST) overnight at 4° C. The bound primary antibodies were detected using appropriate secondary HRP conjugated antibodies (1:5000 in TBST) for 1 hour at room temperature and visualized by ECL autoradiography or with an Image Quant LAS 4010. The membranes were stripped in acidic methanol, blocked and re-probed as necessary.

Experiment [2] concerns U-937 cells. In words: Cytochrome c release by immunoblot and flow cytometry. In kind it is cell-based, Human. The following applies: 10 μM. Here is the method: (§1) Cytochrome c Release by Immunoblot.
(§2) U-937 cells (3×10^6 cells in 2 mL RPMI) or SKW 6.4 cells (5×10^6 cells in 2 mL RPMI) were treated with 10 μM Raptinal for 10, 20, 30, 45 or 60 minutes in a 12-well plate. Cells were centrifuged (1000×g. 2 min), washed with ice-cold PBS and resuspended in cold 200 μL digitonin permeabilization buffer (75 mM NaCl, 1 mM Sodium phosphate monobasic, 8 mM sodium phosphate dibasic, 250 mM sucrose, 190 μg/mL digitonin, protease cocktail inhibitor, pH 7.5) and placed on ice for 5 min. Cell permeability (>95%) was confirmed by trypan blue. The permeabilized cells were centrifuged (14000×g, 5 min) and 150 μL of supernatant (cytosolic fraction) was saved. The pellet (mitochondrial fraction) was washed in 200 μL digitonin permeabilization buffer and lysed in 25 μL RIPA lysis buffer. […]
(§3) Suspension cells (2.5×10^6 SKW 6.4 cells or 1.5×10^6 U-937 cells in 1 mL RPMI) were treated with 10 μM Raptinal in a 24 well plate for 10, 20, 30, 45 and 60 min. The cells were centrifuged (1000×g, 2 min), washed with cold PBS and resuspended in cold permeabilization buffer (PBS containing 50 μg/mL digitonin and 100 mM KCl) and placed on ice for 5 min after which >95% of cells were permeabilized as determined by trypan blue. […] The cells were pelleted and washed with PBS (3 mL) and resuspended in PBS (1 mL) and analyzed by flow cytometry. […]

For experiment [3], the system named is SKW 6.4 cells. The experiment is described as above. The following applies: 10 μM. The experiment is classed as cell-based, Human. Here is the method: as §1, §2, §3
Experiment [4] concerns isolated mitochondria (U-937 cells). Briefly: In vitro cytochrome c release from isolated mitochondria. The experiment is classed as biochemical, Human. The following applies: respiring and non-respiring conditions, 30 min, Western blot. The procedure:
In Vitro Cytochrome c Release from Isolated Mitochondria.
U-937 cells (120×10^6) were washed twice in PBS and resuspended in 800 μL ice-cold lysis buffer (50 mM HEPES, 5 mM DTT, 5 mM PMSF, 25 mM MgCl2, protease cocktail inhibitor, pH 7.5) and the cells were passed through a 26 gauge needle 26 times using a 1 mL syringe until >95% cells were lysed as determined by trypan blue. Isolation buffer (0.25 M sucrose in lysis buffer pH 7.5) was added to the lysed cells (2.4 mL) and mixed by inversion. Debris was removed by centrifugation (500×g. 10 min at 4° C.) and the mitochondria in the supernatant were pelleted by centrifugation (10000×g, 5 min at 4° C.). The mitochondrial pellet was resuspended in washing buffer (2 mL of 50 mM HEPES, 250 mM KCl, 25 mM EDTA, pH 7.5) and incubated on ice for 2 min and centrifuged (12500×g, 5 min). The mitochondrial pellet was resuspended in either non-respiration (300 μL of 50 mM HEPES, 5 mM DTT, 5 mM PMSF, 25 mM MgCl2, protease inhibitor, 250 mM KCl, 25 mM EDTA, pH 7.5) or respiration buffer (300 μL of 50 mM HEPES, […], 5 mM ATP, 0.4 mM ADP, 25 mM sodium succinate, 10 mM potassium phosphate dibasic, pH 7.5). […]
(A western blot detects proteins with antibodies after separation by electrophoresis.)

Experiment [5] concerns caspase-3/-7. Briefly: Caspase activity assay in cell lysate (Ac-DEVD-AFC). The experiment is classed as cell-based. As to conditions: 10 μM.

Structures are written as SMILES. Entries after “also recorded” stand apart in the source; their conditions may differ.

Regarding `O=CC1(C2(C=O)c3ccccc3-c3ccccc32)c2ccccc2-c2ccccc21` [Raptinal, [9,9′]bifluorenyl-9,9′-dicarbaldehyde], the “time of activation of initiator caspase-9” value in experiment [1] turned out to be 20 min. Also, the “time to complete cleavage of procaspase-9, procaspase-8 and procaspase-3” value in experiment [1] is not above 45 min. For the same molecule, the “procaspase-3 activation (immunoblot)” value in experiment [1] (one hour of exposure) is “the only agent capable of inducing procaspase-3 activation”. Also, the “time of earliest / partial cytochrome c release” value in experiment [2] and in experiment [3] was 10 min each time. In addition, in experiment [4], the “cytochrome c release from isolated mitochondria” value was “does not induce cytochrome c release; also recorded: did not directly induce cytochrome c release”. Further, the “induction of caspase-3/-7 activity compared to other apoptosis inducing agents” value in experiment [5] is “faster induction of caspase-3/-7 activity and higher peak levels”.
